The target of test [1] is PD-L1 His protein / PD-1 Fc protein (Homo sapiens (Human), UniProt Q9NZQ7). Put plainly: HTRF Assay (PD-1/PD-L1 interaction). In kind it is binding. Conditions: PD-L1 His 6 nM, PD-1 Fc 6 nM. For orientation: Time-resolved FRET reads energy transfer from a long-lived donor to a nearby acceptor.
For another test, the target named is human PD-L1 (Homo sapiens (Human), UniProt Q9NZQ7). Put plainly: T cell activation luciferase reporter cell culture system (T Cell Activation Assay). Conditions: luciferase reporter assay; PD-L1 aAPC/CHO-K1 cells with PD-1 effector Jurkat T cells. It counts as cell-based.
Chain of human PD-L1 (Q9NZQ7 19-290): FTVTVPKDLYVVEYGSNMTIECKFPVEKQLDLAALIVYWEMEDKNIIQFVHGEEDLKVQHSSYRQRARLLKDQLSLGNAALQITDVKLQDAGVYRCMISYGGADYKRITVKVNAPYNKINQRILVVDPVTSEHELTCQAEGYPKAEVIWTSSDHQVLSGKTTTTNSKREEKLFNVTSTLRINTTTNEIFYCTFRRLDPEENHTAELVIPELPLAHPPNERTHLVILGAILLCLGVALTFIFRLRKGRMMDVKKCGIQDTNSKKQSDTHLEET

Chain of PD-L1 His protein / PD-1 Fc protein (Q9NZQ7 19-238): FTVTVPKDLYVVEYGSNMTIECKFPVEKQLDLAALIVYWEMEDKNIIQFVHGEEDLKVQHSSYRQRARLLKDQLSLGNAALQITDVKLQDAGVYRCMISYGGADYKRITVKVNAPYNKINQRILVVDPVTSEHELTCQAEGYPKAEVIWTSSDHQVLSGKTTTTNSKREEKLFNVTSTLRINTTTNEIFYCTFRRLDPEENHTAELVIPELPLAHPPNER

`COc1cc(CNC[C@@H]2CCC(=O)N2)cc(-c2nccc(-c3cccc(-c4ccc(CNC[C@@H]5CCC(=O)N5)c(OC)n4)c3Cl)c2Cl)c1` [Compound 153, (S)-5-((((6-(2-chloro-3-(3-chloro-2-(3-methoxy-5-(((((S)-5-oxopyrrolidin-2-yl)methyl)amino)methyl)phenyl)pyridin-4-yl)phenyl)-2-methoxypyridin-3-yl)methyl)amino)methyl)pyrrolidin-2-one] returned an IC50 in test [1] of 5.14 nM. In addition, the EC50 at human PD-L1 was found to be 782 nM.
On the same counts, the results for `COc1cc(-c2nccc(-c3cccc(-c4ccc(CNC5CCN(C(C)=O)CC5)c(OC)n4)c3Cl)c2Cl)cc(F)c1CNC1CCN(C(C)=O)CC1` [Example 285, 1-(4-(((6-(3-(2-(4-(((1-Acetylpiperidin-4-yl)amino)methyl)-3-fluoro-5-methoxyphenyl)-3-chloropyridin-4-yl)-2-chlorophenyl)-2-methoxypyridin-3-yl)methyl)amino)piperidin-1-yl)ethan-1-one] are 0.716 nM and 14.2 nM.
On the same counts, the results for `COc1cc(-c2nccc(-c3cccc(-c4ccc(CN5CC(C)(O)C5)c(OC)n4)c3Cl)c2Cl)cc2c1CN(C[C@H](C)O)CC2` [Compound 217, (S)-1-((6-(2-chloro-3-(3-chloro-2-(2-(2-hydroxypropyl)-8-methoxy-1,2,3,4-tetrahydroisoquinolin-6-yl)pyridin-4-yl)phenyl)-2-methoxypyridin-3-yl)methyl)-3-methylazetidin-3-ol] are 2.01 nM and 38.2 nM.
On the same counts, the results for `COc1nc(-c2cccc(-c3ccnc(-c4ccc5c6c(n(C)c5c4)CCN(CCO)C6)c3Cl)c2Cl)ccc1CNC[C@@H]1CCC(=O)N1` [Compound 158, (S)-5-((((6-(2-chloro-3-(3-chloro-2-(2-(2-hydroxyethyl)-5-methyl-2,3,4,5-tetrahydro-1H-pyrido[4,3-b]indol-7-yl)pyridine-4-yl)phenyl)-2-methoxypyridin-3-yl)methyl)amino)methyl)pyridine1330ne-2-one] are 0.64 nM and not below 10000 nM.
With `COc1nc(-c2ccnc(-c3cccc4c3CCC[C@@H]4Nc3nc(OC)c(CNC[C@H](C)O)cc3C(F)(F)F)c2Cl)ccc1CNC[C@@H]1CCC(=O)N1` [Example 707, (S)-5-((((3′-Chloro-2′-((S)-5-((5-((((S)-2-hydroxypropyl)amino)methyl)-6-methoxy-3-(trifluoromethyl)pyridin-2-yl)amino)-5,6,7,8-tetrahydronaphthalen-1-yl)-6-methoxy-[2,4′-bipyridin]-5-yl)methyl)amino)methyl)pyrrolidin-2-one], the concentration for half-maximal inhibition (IC50) in test [1] came to 54.3 nM. The compound further registered an EC50 on human PD-L1 not below 10000 nM.
On the same counts, the results for `COc1cc(-c2nccc(-c3cccc(-c4ccc(CNC5CCOCC5)c(OC)n4)c3Cl)c2Cl)ccc1CNC1CCOCC1` [Example 298, N-((6-(2-chloro-3-(3-chloro-2-(3-methoxy-4-(((tetrahydro-2H-pyran-4-yl)amino)methyl)phenyl)pyridin-4-yl)phenyl)-2-methoxypyridin-3-yl)methyl)tetrahydro-2H-pyran-4-amine] are 1.78 nM and 14.6 nM.
On the same counts, the results for `COc1nc(-c2cccc(-c3ccnc(-c4ccc5c(CNC6CCC(F)(F)CC6)cn(C)c5c4)c3Cl)c2Cl)ccc1CNC[C@@H]1CCC(=O)N1` [Compound 73, (S)-5-((((6-(2-chloro-3-(3-chloro-2-(3-(((4,4-difluorocyclohexyl)amino)methyl)-1-methyl-1H-indol-6-yl)pyridin-4-yl)phenyl)-2-methoxypyridin-3-yl)methyl)amino)methyl)pyrrolidin-2-one] are 0.9 nM and 184 nM.
On the same counts, the results for `COc1cc(-c2nccc(-c3cccc(-c4ccc(CNC[C@@H]5CCCO5)c(OC)n4)c3Cl)c2Cl)cc2c1CN(C[C@H](C)O)CC2` [Compound 216, (S)-1-(6-(3-chloro-4-(2-chloro-3-(6-methoxy-5-(((((S)-tetrahydrofuran-2-yl)methyl)amino)methyl)pyridin-2-yl)phenyl)pyridin-2-yl)-8-methoxy-3,4-dihydroisoquinolin-2(1H)-yl)propan-2-ol] are 4.51 nM and 271 nM.
In the case of `COc1cc(-c2nccc(-c3cccc(NC(=O)c4ccc(CN5CC6(C5)CN(C(C)=O)C6)cn4)c3Cl)c2Cl)ccc1CN1CC2(C1)CN(C(C)=O)C2` [Example 677, 5-((6-Acetyl-2,6-diazaspiro[3.3]heptan-2-yl)methyl)-N-(3-(2-(4-((6-acetyl-2,6-diazaspiro[3.3]heptan-2-yl)methyl)-3-methoxyphenyl)-3-chloropyridin-4-yl)-2-chlorophenyl)picolinamide], half-maximal inhibition in test [1] (IC50) was put at 0.04 nM. At human PD-L1, the midpoint of the response, the EC50, lay at 1210 nM.
The compound `COc1cc(-c2nccc(-c3cccc(-c4ccc(CN5CC6(CNC(=O)C6)C5)c(OC)n4)c3Cl)c2Cl)ccc1CNC1CCN(C(C)=O)CC1` [Example 332, 2-((6-(3-(2-(4-(((1-acetylpiperidin-4-yl)amino)methyl)-3-methoxyphenyl)-3-chloropyridin-4-yl)-2-chlorophenyl)-2-methoxypyridin-3-yl)methyl)-2,6-diazaspiro[3.4]octan-7-one] displayed an IC50 in test [1] of 1.8 nM. For the same compound, the EC50 on human PD-L1 was determined as 12.4 nM.
As to `COc1cc(-c2nccc(-c3cccc4c3CCC[C@@H]4Nc3nc(OC)c(CN4CC5(CNC(=O)C5)C4)cc3C(F)(F)F)c2Cl)ccc1CNC[C@@H]1CCC(=O)N1` [Example 724, 2-((6-(((S)-5-(3-Chloro-2-(3-methoxy-4-(((((S)-5-oxopyrrolidin-2-yl)methyl)amino)methyl)phenyl)pyridin-4-yl)-1,2,3,4-tetrahydronaphthalen-1-yl)amino)-2-methoxy-5-(trifluoromethyl)pyridin-3-yl)methyl)-2,6-diazaspiro[3.4]octan-7-one], in test [1], the IC50 was 585 nM. The EC50 at human PD-L1 was not below 10000 nM.
In the case of `CNCc1cn(C)c2cc(-c3nccc(-c4cccc(-c5ccc(CNC[C@@H]6CCC(=O)N6)c(OC)n5)c4Cl)c3Cl)ccc12` [Compound 31, (S)-5-((((6-(2-chloro-3-(3-chloro-2-(1-methyl-3-((methylamino)methyl)-1H-indol-6-yl)pyridin-4-yl)phenyl)-2-methoxypyridin-3-yl)methyl)amino)methyl)pyrrolidin-2-one], the half-maximal inhibitory concentration (IC50) in test [1] came to 0.3 nM. The compound also came in with an EC50 at human PD-L1 of 134 nM.
On the same counts, the results for `COc1nc(-c2ccnc(-c3cccc(NC(=O)c4cn(C)c(=O)n(C)c4=O)c3Cl)c2Cl)ccc1CN1CC2(C1)CN(C(C)=O)C2` [Compound 731, N-(3-(5-((6-Acetyl-2,6-diazaspiro[3.3]heptan-2-yl)methyl)-3′-chloro-6-methoxy-[2,4′-bipyridin]-2′-yl)-2-chlorophenyl)-1,3-dimethyl-2,4-dioxo-1,2,3,4-tetrahydropyrimidine-5-carboxamide] are 0.9 nM and 1170 nM.
As to `COc1cc(-c2nccc(-c3cccc(-c4ccc(CNC5CCOCC5)c(OC)n4)c3C)c2C)ccc1CNC1CCOCC1` [Example 425, N-(2-Methoxy-4-(4-(3-(6-methoxy-5-(((tetrahydro-2H-pyran-4-yl)amino)methyl)pyridin-2-yl)-2-methylphenyl)-3-methylpyridin-2-yl)benzyl)tetrahydro-2H-pyran-4-amine], in test [1], the IC50 was determined as 7.08 nM. For the same compound, the EC50 on human PD-L1 came to 841 nM.
Compound `COc1cc(-c2nccc(-c3cccc(NC(=O)c4cn(C)c(=O)n(C)c4=O)c3Cl)c2Cl)ccc1CN1CC2(CNC(=O)C2)C1` [Example 658, N-(2-Chloro-3-(3-chloro-2-(3-methoxy-4-((7-oxo-2,6-diazaspiro[3.4]octan-2-yl)methyl)phenyl)pyridin-4-yl)phenyl)-1,3-dimethyl-2,4-dioxo-1,2,3,4-tetrahydropyrimidine-5-carboxamide] yielded a half-maximal inhibitory concentration (IC50) in test [1] of 0.25 nM. The same compound registered a 50% effective concentration (EC50) at human PD-L1 of 492 nM.
On the same counts, the results for `COc1cc(-c2nccc(-c3cccc(-c4ccc(CN[C@H]5CC[C@H](OC)CC5)c(OC)n4)c3Cl)c2Cl)ccc1CN[C@H]1CC[C@H](OC)CC1` [Example 450, (1r,4r)-N-((6-(2-Chloro-3-(3-chloro-2-(3-methoxy-4-((((1r,4r)-4-methoxycyclohexyl)amino)methyl)phenyl)pyridin-4-yl)phenyl)-2-methoxypyridin-3-yl)methyl)-4-methoxycyclohexan-1-amine] are 2.36 nM and 54.7 nM.
On the same counts, the results for `CNCc1ccc(-c2cccc(-c3ccnc(-c4ccc(CN5CC[C@H](C(=O)O)C5)c(OC)c4)c3Cl)c2Cl)nc1OC` [Compound 226, (S)-1-(4-(3-chloro-4-(2-chloro-3-(6-methoxy-5-((methylamino)methyl)pyridin-2-yl)phenyl)pyridin-2-yl)-2-methoxybenzyl)pyrrolidine-3-carboxylic acid] are 0.27 nM and 62.7 nM.
On the same counts, the results for `COc1cc(-c2nccc(-c3cccc(-c4ccc5c(OC)c(CNC[C@H](C)O)cc(Cl)c5n4)c3Cl)c2Cl)ccc1CNC[C@@H]1CCC(=O)N1` [Compound 206, (S)-5-(((4-(3-chloro-4-(2-chloro-3-(8-chloro-6-((((S)-2-hydroxypropyl)amino)methyl)-5-methoxyquinolin-2-yl)phenyl)pyridin-2-yl)-2-methoxybenzyl)amino)methyl)pyrrolidin-2-one] are 0.856 nM and 182 nM.
In the case of `COc1cc(-c2nccc(-c3cccc(-c4ccc(CNC5CCN(C(=O)c6ccccc6)CC5)c(OC)n4)c3Cl)c2Cl)ccc1CNC1CCN(C(=O)c2ccccc2)CC1` [Example 422, (4-(((6-(3-(2-(4-(((1-Benzoylpiperidin-4-yl)amino)methyl)-3-methoxyphenyl)-3-chloropyridin-4-yl)-2-chlorophenyl)-2-methoxypyridin-3-yl)methyl)amino)piperidin-1-yl)(phenyl)methanone], in test [1], the IC50 came to 0.9 nM. Besides, the EC50 on human PD-L1 amounted to 75.5 nM.

Broadly, the IC50 is the concentration that inhibits the measured activity by half. Lower therefore signals higher potency. Usually EC50 stands for the concentration at which the effect is half-maximal. Low values mean a more potent agent, high ones a less potent agent.

For the origin of these results see patent US20240246964A1 (Arbutus Biopharma Corporation, priority 2021, published 2024).
